In patent US11052163B2, “Homing agents” (Washington University, priority 2013, dated 2021):
“Also recorded” adds a separate entry of the source.

Assays:
[1] = biological target: T1, fibrin (acellular clot phantoms) (Homo sapiens, UniProt P02671+P02675+P02679); experiment: Clot phantom binding in presence of 50% serum (Example 5)
T1 construct: 100 μL of human plasma was quickly mixed with 3 unit of thrombin solution; from tissue; host or cells: human plasma clotted with thrombin
T1 sequence (P02671 20-644 isoform P02671-2 limits assumed): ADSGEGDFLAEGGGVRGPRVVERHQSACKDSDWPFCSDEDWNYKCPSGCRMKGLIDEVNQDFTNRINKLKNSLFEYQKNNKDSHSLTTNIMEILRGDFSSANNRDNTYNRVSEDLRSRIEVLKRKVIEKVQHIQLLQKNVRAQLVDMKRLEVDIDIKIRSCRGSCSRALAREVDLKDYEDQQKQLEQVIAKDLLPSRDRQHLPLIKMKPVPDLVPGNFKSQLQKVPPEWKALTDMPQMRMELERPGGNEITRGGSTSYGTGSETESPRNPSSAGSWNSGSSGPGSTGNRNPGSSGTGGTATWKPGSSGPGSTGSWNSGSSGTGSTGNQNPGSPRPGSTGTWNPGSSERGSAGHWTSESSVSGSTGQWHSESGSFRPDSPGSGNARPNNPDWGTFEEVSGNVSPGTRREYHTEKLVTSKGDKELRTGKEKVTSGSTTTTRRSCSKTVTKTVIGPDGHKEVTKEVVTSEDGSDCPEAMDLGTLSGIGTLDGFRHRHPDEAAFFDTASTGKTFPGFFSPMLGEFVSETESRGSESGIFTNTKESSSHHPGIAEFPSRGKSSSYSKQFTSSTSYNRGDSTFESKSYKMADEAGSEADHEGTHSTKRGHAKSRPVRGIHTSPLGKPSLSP
T1 sequence (P02675 45-491 limits assumed): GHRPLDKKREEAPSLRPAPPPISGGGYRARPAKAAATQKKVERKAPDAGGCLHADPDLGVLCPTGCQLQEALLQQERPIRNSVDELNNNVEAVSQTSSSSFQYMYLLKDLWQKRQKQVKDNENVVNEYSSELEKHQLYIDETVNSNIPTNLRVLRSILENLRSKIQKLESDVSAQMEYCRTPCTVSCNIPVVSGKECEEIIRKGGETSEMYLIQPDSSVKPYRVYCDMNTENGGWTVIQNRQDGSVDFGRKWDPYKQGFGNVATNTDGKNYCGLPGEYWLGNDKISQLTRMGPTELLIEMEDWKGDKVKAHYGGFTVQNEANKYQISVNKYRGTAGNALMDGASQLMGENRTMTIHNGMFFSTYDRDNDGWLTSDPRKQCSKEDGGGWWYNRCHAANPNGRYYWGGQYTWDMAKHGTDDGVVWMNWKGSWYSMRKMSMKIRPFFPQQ
T1 sequence (P02679 27-437 isoform P02679-2 limits assumed): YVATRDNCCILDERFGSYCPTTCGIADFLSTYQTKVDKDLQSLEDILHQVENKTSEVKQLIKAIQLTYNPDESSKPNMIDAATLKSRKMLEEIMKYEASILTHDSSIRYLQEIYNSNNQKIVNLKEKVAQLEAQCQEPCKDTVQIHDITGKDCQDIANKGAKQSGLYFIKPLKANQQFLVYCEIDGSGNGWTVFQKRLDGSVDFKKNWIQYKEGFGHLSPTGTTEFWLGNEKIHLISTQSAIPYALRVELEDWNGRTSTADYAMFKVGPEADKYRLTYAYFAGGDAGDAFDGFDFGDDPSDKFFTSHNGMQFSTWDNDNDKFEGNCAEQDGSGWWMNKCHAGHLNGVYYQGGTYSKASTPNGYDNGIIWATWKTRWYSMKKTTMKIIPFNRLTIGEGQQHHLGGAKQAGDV
Method: (§1) In a parallel experiment, binding of the fibrin-binding monomeric construct to acellular clot phantoms in the presence of excess cysteine, or in the presence of 50% serum was also tested. For excess cysteine conditions, 0.25 mg of cysteine in 0.5 mL PBS was also combined with the monomeric construct and clot phantoms. The experiment was conducted as described above, and incubated for 120 min at 37° C. in a water bath. […] Cys is used to test the stability of the metal on the agent, and binding of the agent without the metal would look like lower binding. Instability and loss of the metal in the presence of serum could have accounted for the lower binding of the monomeric peptide, but the metal was stable. […] Thus the peptide binding was interfered with by off-target association with something in serum, likely albumen. This was consistent with previous reports describing the serum binding of the monomeric fibrin-binding peptide.

[2] = 99mTc label retention with excess cysteine, clot phantoms (Example 5); format: physicochemical; conditions: 0.25 mg cysteine in 0.5 mL PBS, 120 min, 37° C.
Method: as §1

[3] = biological target: T2, fibrin clot (Homo sapiens, UniProt P02671+P02675+P02679); experiment: Plasma interference on fibrin clot binding (50:50 plasma:PBS)
T2 construct: admixing 100 μl of fresh human plasma with 3 units thrombin (Sigma Chemical); from tissue; host or cells: fresh human plasma clotted with thrombin (Sigma Chemical)
T2 sequence (P02671 20-644 isoform P02671-2 limits assumed): T1 sequence (P02671 20-644 isoform P02671-2 limits assumed)
T2 sequence (P02675 45-491 limits assumed): T1 sequence (P02675 45-491 limits assumed)
T2 sequence (P02679 27-437 isoform P02679-2 limits assumed): T1 sequence (P02679 27-437 isoform P02679-2 limits assumed)
Method: (§2) Acellular fibrin clot assays of probe affinity, radiolabel stability, and plasma interference: Acellular fibrin clots were used: 1) to characterize the binding affinity of ^99mTc-F1A and ^99mTc-F4A, 2) to assess the stability of ^99mTc chelation, and 3) to evaluate the extent of plasma interference of fibrin binding. Specifically, uniform clots were produced by quickly admixing 100 μl of fresh human plasma with 3 units thrombin (Sigma Chemical). The mixture was pipetted into uniform cylindrical plastic tubes. Once formed, clots were washed repeatedly in 0.1 M PBS buffer (pH 7.0) then stored in same until use at 4° C.
Assessment of ^99mTc-F1A and ^99mTc-F4A radiolabel stability and plasma interference: Radiolabeled F1A and F4A were bound to clots in the presence of marked excess cysteine to evaluate the stability of the ^99mTc label in triplicate.^49 99mTc-F1A or ^99mTc-F4A (20 μCi) supplemented with 0.1 M PBS pH 7.4 (total volume of 0.5 ml) were incubated with fibrin clot samples at 37° C. for 30 minutes. Similarly, the 0.1 M PBS buffer diluted 50% with fresh human plasma (total volume of 0.5 ml) was used to assess potential matrix interference on radiolabeled peptide binding in triplicate. In both instances, fibrin clots were separated from unbound radioactivity by repeated centrifugation, washed, then counted in a calibrated well counter (Wizard 3, Perkin Elmer).

[4] = system: fibrin clots; experiment: Ex vivo LVAD flow study using a mock loop; format: binding; conditions: 10,000 RPM, 6 L/min, 2 minutes, 50:50 plasma:PBS, 0.5 mCi
Method: The high shear (10,000 RPM) and high flow (6 L/min) of the LVAD, which is required to pump the entire circulating blood volume of the patient every minute, places severe demands on the binding affinity and clot retention of the nuclear probe. […] The ½″ plastic tubing circuit was filled with a 50:50 human plasma:PBS mixture (200 ml). Uniform fibrin clots were secured with a highly porous, thin gauze netting within a plastic ½″ chamber immediately proximal to the LVAD inlet secured. ^99mTc-F1A or ^99mTc-F4A were injected into the mock loop and allowed to target the clots at the full flux rate for 2 minutes.
Ex vivo LVAD flow study using a mock loop: A LVAD (Heartmate II) driven by a computer-controlled console was inserted into a 200 ml mock flow loop comprised of ½″ plastic tubing interconnecting a PBS/Fresh Plasma (50:50) reservoir, an injection port, a media drainage port, and an inline ½″ plastic chamber. Uniform fibrin clots produced by mixing fibrinogen, thrombin, and calcium and aged 24 hours were secured within the inline chamber using a highly porous, single thread layer of cotton gauze. […] Radioactive circulating plasma/PBS was drained and replaced with PBS, which circulated for 2 minutes to remove unbound radioactivity. Clot radioactivity was counted in a calibrated gamma well counter and the results adjusted for decay.

[5] = biological target: T1, fibrin (acellular clot phantoms); experiment: Binding of 99mTc monomeric construct to acellular clot phantoms (Scatchard plot)
Method: Clot phantoms were generated using a typical procedure wherein 100 μL of human plasma was quickly mixed with 3 unit of thrombin solution. The resulting solution was then transferred into a plastic cylinder tube. Once clots were formed, they were placed each in 4 mL 0.1 M PBS buffer, pH7.0 solution.
The fibrin-binding monomer construct labeled with ^99mTc (10 mCi/350 μg) was prepared and analyzed by TLC as described in the examples above. The construct was diluted to generate a dilution series comprising 1, 5, 10, 15, 25, and 30 μg peptide construct in a total volume of 0.5 mL 0.1 M PBS at pH 7.4.
The monomeric construct was then combined with clot phantoms and incubated for 30 min at 37° C. in a water bath. Clot phantoms were separated from the solution by centrifugation device, and radioactivity was measured in the clot and the supernatant using a calibrated dosimeter. The experiment was repeated for three times and data were analyzed by Scatchard plot and regression analysis (FIG. 3). […] The dissociation constant (Kd) and the number of binding sites per clot were also determined.

[6] = biological target: T2, fibrin clot; experiment: Fibrin binding affinity, acellular fibrin clot assay (Hill slope model); conditions: uniform fibrin clots in PBS, read-out: dissociation constant (Kd)
Method: as §2
Fibrin binding affinity: ^99mTc-F1A or ^99mTc-F4A (20 μCi) were incubated with the clot samples at 37° C. for 30 minutes with 1, 5, 10, 15, 25, and 30 μg cold monomer supplemented with 0.1 M PBS pH 7.4 to bring each test volume total to 0.5 ml. The fibrin clots were separated from unbound radioactivity by repeated centrifugation and washing then counted in a calibrated well counter (Wizard 3, Perkin Elmer). Results, adjusted for decay, were used to estimate dissociation constant (kd) using the Hill slope model, Y=Bmax*X^h/(Kd^h+X^h) (MatLab). Total fibrin concentration was estimated from plasma fibrinogen estimated to be 0.735 nmoles per clot.

For “99mTc-labeled monomer: fibrin homing peptide QWECPYGLCWIQ linked through PEG2 spacer to technetium chelating sequence HHE [^99mTc-F1A]”, the “binding of labeled peptide to clot in presence of 50% serum” value [1] was “greatly diminished”, the “effect of excess cysteine on coupling of the 99mTc radiolabel” value [2] was “did not impact the secure coupling” and the “fibrin clot binding in 50:50 plasma:PBS versus PBS” value [3] was “severely compromised; also recorded: dramatically reduced”. The “clot binding and retention in LVAD mock loop” value [4] was “very low signal level; also recorded: very close to background level counts”, the “binding site per clot” value [5] was 8.48E+14 and the “binding site per mg” value [5] was 1.21E+15. For the same substance, the Kd [6] was ~10.2 µM.
